Where a name gives a salt, the structure may show the parent alone.
Assays:
Format in all cases: cell-based
[1] = test system: HT29 cells; experiment: Necroptosis assay in HT29 cells (TNF-α, Smac mimetic, z-VAD; cell viability); conditions: Homo sapiens, HT-29; inhibition of necrosis in HT29 cells, compound at 50 nM
[2] = test system: L929 cells; experiment: Necroptosis assay in L929 cells (TNF-α, z-VAD; cell viability by ATP levels); conditions: Mus musculus, TNF-α (40 ng/mL), z-VAD (20 μM), 48 hours
Procedure: […] Then the cells were treated with TNF-α (40 ng/mL) and z-VAD (20 μM) for 48 hours, and the viability of cells was quantified by detecting adenosine triphosphate (ATP) levels. DMSO pretreatment group was used as negative controls, Nec-1 pretreatment group was used as positive controls.

[3] = test system: HT29 cells; experiment: Necroptosis assay in HT29 cells (TNF-α, Smac mimetic, z-VAD; cell viability); conditions: Homo sapiens, HT-29; TNF-α (40 ng/mL), Smacmimetic (100 nM), z-VAD (20 μM), 48 hours
Procedure: Human colon cancer HT29 cells were used in a necroptosis assay. For this assay, HT29 cells were added to 96-well plates and then were pre-treated with 10 μM of the test compound for one hour. Then the cells were treated with TNF-α (40 ng/mL), Smacmimetic (100 nM) and z-VAD (20 μM) for 48 hours, and the viability of cells was quantified. DMSO pretreatment group was used as negative controls, Nec-1 pretreatment group was used as positive controls.
In Table 2, (1) “ND” indicates “not detected;” (2) Explanation for inhibition %: Taking Compound B14 as an example, its inhibition % was 30% (50 nM). It means that the when Compound B14 at a concentration of 50 nM was used in the HT29 Cell Assay, the necrosis of cells were inhibited at 30%.

SMILES	inhibition at 0.05 µM [1] [%]	IC50 [2] [nM]	IC50 [3] [nM]
Nc1nc2ccc(-c3cnc4c(c3)N(C(=O)OC3CCOCC3)CCO4)cc2s1 [Compound B14, tetrahydro-2H-pyran-4-yl7-(2-aminobenzo[d]thiazol-6-yl)-2,3-dihydro-1H-pyrido[2,3-b][1,4]oxazine-1-carboxylate hydrochloride]	30	12.6	–
Nc1cn2nc(-c3cnc4c(c3)N(C(=O)OC3CCOCC3)CCO4)ccc2n1 [Compound B23]	10	11.5	147
CC(=O)Nc1cn2nc(-c3cnc4c(c3)N(C(=O)OC3CCOCC3)CCO4)ccc2n1 [Compound B20]	20	–	–
CC(=O)Nc1cn2cc(-c3cnc4c(c3)N(C(=O)OC3CCOCC3)CCO4)ccc2n1 [Compound B18]	10	–	–
CC(C)(C)OC(=O)Nc1cn2nc(-c3cnc4c(c3)N(C(=O)OC3CCOCC3)CCO4)ccc2n1 [Compound B22]	25	80	114
CC(=O)Nc1nc2ccc(-c3cnc4c(c3)N(C(=O)OC3CCOCC3)CCO4)cc2s1 [Compound B15]	–	8.8	20
O=C(Nc1nc2ccc(-c3cnc4c(c3)N(C(=O)OC3CCC(F)(F)CC3)CC4)cc2s1)C1CC1 [Compound B70]	–	1.3	1.2

Source: patent US11339177B2, “Heteroaryl compounds as inhibitors of necrosis, composition and method using the same” (ACCRO BIOSCIENCE INC., priority 2017, dated 2022)
